Assay results taken from PubChem BioAssay AID2305 (GlaxoSmithKline (GSK), 2010).
Where “and” joins values, the source holds several entries; their conditions need not be identical. Equal values may be shown once.

Test system: P. falciparum 3D7 growth, pLDH absorbance
Experiment: blood-stage malaria parasite growth potency – strain 3D7, dose response (AID 2305)

Structure (SMILES) | IC50
NC(=O)c1ccc(NC(=O)CN(Cc2ccc(Cl)cc2)S(=O)(=O)c2ccccc2)cc1 | 650 nM
CN1CCN(CC(=O)Nc2cccc(-c3ccc(-c4nc5ccc(C(F)(F)F)cc5[nH]4)cc3)c2)CC1 | 520 nM
NCc1ccc(Nc2nccc(Nc3ccc(-c4ccccc4)cc3)n2)cc1 | 890 nM
CCCCCN1CCCC1CNS(=O)(=O)c1cccc(C(=O)Nc2cccc(C#N)c2)c1 (configuration not stated) | 980 nM
CN(C)c1ccc(CN2CCC(NC(=O)c3ccc(-c4cccc(C(F)(F)F)c4)s3)CC2)cc1 | 1150 nM
COc1ccc(-c2nonc2NC(=O)c2ccc(C(C)(C)C)cc2)cc1OC | 810 nM
Cc1cc(N[C@@H](CC(C)C)C(=O)NCCOc2ccccc2)nc(NCCc2ccc(F)cc2)n1 | 1290 nM
CCc1c(C(=O)NC2CCC(N3CCC(c4ccccc4C)CC3)CC2)[nH]c2ccc(OC)cc12 (configuration not stated) | 810 nM
COc1ccc2ncc(F)c(CCN3C[C@H](CNCc4ccc5c(n4)NC(=O)CS5)[C@H](O)C3)c2c1 | 780 nM
COc1cc2c(cc1OC)CN(CCCCNC(=O)c1ccc(NC(=O)c3cc(Cl)cc(Cl)c3)cc1)CC2 | 780 nM
CS(=O)(=O)c1ccc(CNCc2cccc(-c3cccc(-c4nc5ccccc5[nH]4)c3)c2)cc1 | 590 nM
COc1ccc2nccc([C@@H](O)CN3CCC(NCc4nc5cc(F)ccc5o4)CC3)c2c1 | 150 nM
CN1CCN(CCCN(Cc2csc(-c3ccc(CNCc4ccccc4)cc3)n2)C(=O)Nc2cccc(Cl)c2)CC1 | 790 nM
Fc1ccc(C=NNc2ccnc3ccccc23)cc1 | 710 nM
O=C(CC(=O)C(F)(F)F)c1ccc2c(c1)OCO2 | 740 nM
CC(C)N(CC(=O)c1ccc(O)c(C(=O)O)c1)Cc1ccccc1 | 190 nM
O=C(Cn1c(SCc2cccc(F)c2F)cc(=O)c2ccccc21)N(Cc1ccc(-c2ccc(C(F)(F)F)cc2)cc1)C1CCN(CCO)CC1 | 1250 nM
CC(C)(C)c1ccc(S(=O)(=O)Nc2ccccc2Cn2nc(N3CCNCC3)ccc2=O)cc1 | 850 nM
O=C(Nc1ccccc1)c1ccc(-c2cc3ccncc3cc2OC2CCNCC2)s1 | 650 nM
CCN(CC)CCNC(=O)c1ccc(NC(=O)c2ccc(-c3cc(NC(=O)CC4CCCC4)ccc3C)cc2)cc1 | 560 nM
CN1CCN(CCCN(Cc2cccc(-c3ccc(CNCCc4ccccc4)cc3)c2)C(=O)c2cccs2)CC1 | 720 nM
CCN(CCCN1CCCCC1)c1cc(C)nc(Nc2cccc(C(F)(F)F)c2)n1 | 290 nM
O=C(Nc1ccc2c(c1)CCC2)c1cccc(CN2CCCN(Cc3cccc(O)c3)CC2)c1 | 1080 nM
Cc1ccc2c(NN=Cc3cccc(Cl)c3)cc(C)nc2c1 | 950 nM
CC(C)N1CCN(c2ccc(OCCCCN3CCN(c4cccc(Cl)c4Cl)CC3)cc2Cl)CC1 | 1040 nM

Structure (SMILES) | IC50
CC(C)(C)c1ccc(CN2CCC(CNC(=O)c3cc(-c4ccccc4F)cs3)C2)cc1 (configuration not stated) | 560 nM
COc1cc2nc(N(C)Cc3cccc(I)c3)nc(N)c2cc1OC | 860 nM
COc1cc(CCOc2c(C)nc(N)nc2N)cc(OC)c1OC | 20 nM
O=C(Cc1cc(=O)oc2cc(O)ccc12)NC1CCC(CN2CCC(c3c[nH]c4ccccc34)CC2)CC1 (configuration not stated) | 1130 nM
COc1ccc(-c2cccc(NC(=O)c3cccc(Cl)c3)c2)cc1CN(C)CCN(C)C | 810 nM
Cc1ccc(C)c(CN2CCC(CNC(=O)c3cc4ccc5cccnc5c4[nH]3)CC2)c1 | 990 nM
CN1CCC(C(=O)Nc2ccc(-c3cccc(-c4nc5ccc(F)cc5[nH]4)c3)cc2)CC1 | 790 nM
CCC(NC[C@@H](O)[C@H](Cc1ccccc1)NC(=O)c1cc(C2CCCC2)cc(N2CCCC2=O)c1)c1cccc(Cl)c1 (some centres not stated) | 40 nM
O=C(NC1CCN(Cc2ccccc2)CC1)c1cccc(Nc2nc(-c3ccccc3)cs2)c1 | 1030 nM
Nc1nc(N)c2c3c(ccc2n1)NCCC3 | 730 nM
c1cc(-c2ccc(CN3CCN(c4ccncc4)CC3)cc2)cc(-c2nc3ccccc3[nH]2)c1 | 140 nM
CN1CCC(NCc2ccc(S(=O)(=O)Nc3ccc(Oc4cccc(Cl)c4)cc3)cc2)CC1 | 740 nM
CCCCN1CCN(Cc2cccc(NC(=O)c3ccc(Cl)c(Cl)c3)c2)CC1 | 1160 nM
CCNc1cc(C(=O)N[C@@H](Cc2ccccc2)[C@H](O)CNC(C)C)cc(N2CC(c3ccccc3)CCS2(=O)=O)c1 (some centres not stated) | 410 nM
COc1cccc(NC(=O)NC2CCN(c3ccnc(Nc4ccc(F)cc4)n3)C2)c1 (configuration not stated) | 570 nM
Cc1[nH]c2cc(Cl)ccc2c1C1=CCN(CCCCC2(C)C(=O)Nc3c(F)cccc32)CC1 (configuration not stated) | 840 nM
O=C(NC1CCN(Cc2ccc3c(c2)OCCO3)CC1)c1ccc(-c2cccc(C(F)(F)F)c2)s1 | 1830 nM
CCN(CCCN1CCCCC1)c1cc(C)nc(Nc2ccc(Br)cc2F)n1 | 550 nM
CCC(CC)C(CC(=O)NC(C)(C)CCc1ccccc1OC)Nc1ccc(C#N)c2ccccc12 (configuration not stated) | 800 nM
CNCCNCc1ccc(-c2cccc(-c3nc4ccc(C(F)(F)F)cc4[nH]3)c2)cc1 | 630 nM
O=C(C=Cc1cccc(F)c1)NC1CCC(CCN2CCc3ccc(-c4cnccn4)cc3CC2)CC1 (configuration not stated) | 450 nM
O=C(NCCCCN1CCC(c2ccc3c(c2OCC(O)c2ccc(Cl)cc2)CCCC3)CC1)c1ccc(-c2ccc(C(F)(F)F)cc2)cc1 (configuration not stated) | 1040 nM
Oc1ccc2c(c1CNC1CCCCC1)CCCC2 | 940 nM
CN(C)c1ccc(-c2nc3ccc(N)cc3[nH]2)cc1 | 240 nM
CCCCCC(C)C(C)c1cc(O)c2c(c1)OC(C)(C)CC2=Cc1ccncc1 (configuration not stated) | 210 nM

Structure (SMILES) | IC50
O=C(Nc1cccc(-c2ccc(CN3CCNCC3)cc2)c1)c1cccc(Cl)c1 | 1250 nM
CCc1cc(NC(=O)Nc2ccnc3ccccc23)ccc1OC | 140 nM
CCc1cc2c(Sc3nc4ccccc4[nH]3)ncnc2s1 | 820 nM
O=C(Nc1ccc(Cl)cc1)c1ccc(CN2CCCN(Cc3cccc(F)c3)CC2)cc1 | 1030 nM
CC(CN(C)C)C(=O)Nc1cccc(-c2ccc(-c3nc4ccc(F)cc4[nH]3)cc2)c1 (configuration not stated) | 650 nM
COc1ccc(C(=O)NCC(C)(C)c2nc(-c3ccc(Cl)c(O)c3)c(-c3ccncc3)[nH]2)cc1OCCN(C(C)C)C(C)C | 640 nM
CC(CCc1ccccc1)NCC(O)c1cccc([N+](=O)[O-])c1 (configuration not stated) | 860 nM
O=C(c1ccc([N+](=O)[O-])o1)N1CCC(Cc2ccc(C(F)(F)F)cc2)CC1 | 170 nM
CCOc1ccc2c(NN=Cc3cccc(OC)c3)cc(C)nc2c1 | 120 nM
NC(N)=NN=Cc1c2ccccc2c(Cl)c2c(Cl)cccc12 | 880 nM
Cc1ccc2c(c1C)NC(=O)C21NN=C(c2ccccc2)S1 (configuration not stated) | 750 nM
O=C1C(c2ccccc2)=C(Nc2cccc(OC(F)(F)C(F)F)c2)c2ccccc21 | 180 nM
CNC(=O)c1cnc(Nc2ccc(OCC(O)CN(C)C)cc2)nc1Nc1cccc(OC)c1 (configuration not stated) | 320 nM
CC(C)(C)c1cc(C(=O)Nc2cccnc2)cc(C(=O)Nc2cccnc2)c1 | 760 nM
COC(=O)c1ccc2nc(-c3ccc(C(=O)NC4CCN(Cc5ccccc5)CC4)s3)[nH]c2c1 | 690 nM
O=C(Nc1cccc(CN2CCCN(Cc3cccc(Cl)c3)CC2)c1)c1ccc(Br)cc1 | 940 nM
NC(=O)c1ccc2[nH]cc(C3CCN(CC4CCC(NC(=O)/C=C/c5ccc(Cl)c(Cl)c5)CC4)CC3)c2c1 (configuration not stated) | 870 nM and 760 nM
Cc1nnsc1C(=O)Nc1ccc(-c2cccc(-c3nc4ccc(C(F)(F)F)cc4[nH]3)c2)cc1 | 840 nM
NCC1CCCN1Cc1ccc(-c2ccc(-c3nc4ccc(C(F)(F)F)cc4[nH]3)s2)cc1 (configuration not stated) | 790 nM
COc1cccc(CN2CCC(CCOC(c3ccccc3)c3ccccc3)CC2)c1O | 730 nM
CC1(C)N=C(N)N=C(N)N1OCCNCc1ccc(Cl)cc1 | 160 nM
O=C(NCC1CCN(CCN2CCc3ccc4c(c3C2)OCO4)CC1)c1ccc(-c2ccc(C(F)(F)F)cc2)cc1 | 860 nM
COC(=O)c1ccc2[nH]cc(C3CCN(CCC4CCN(C(=O)/C=C/c5ccc(Cl)c(Cl)c5)CC4)CC3)c2c1 | 510 nM
CCCCOC(=O)[C@H](CCC)NC(=O)c1ccc(NS(=O)(=O)c2ccc3nc(N)[nH]c(=O)c3c2)cc1 | 200 nM
CC1(C)CCCC(=Cc2ccc(Br)cc2)C1(O)Cn1ccnc1 (configuration not stated) | 790 nM

Structure (SMILES) | IC50
C[C@@H]1CCC[C@H](C)N1C[C@@H](O)CNS(=O)(=O)c1cccc(C(F)(F)F)c1 | 690 nM
COc1cc2c(cc1OC)CN(CCc1ccc(NC(=O)c3cc4cc(Cl)ccc4[nH]3)cc1)CC2 | 1020 nM
CCCCOc1ccc(CNCCCCCCNCc2ccc(OCCCC)c3ccccc23)c2ccccc12 | 1130 nM
CN(C)c1ccc(CN2CCC(NC(=O)c3ccc(-c4ccccc4Cl)s3)CC2)cc1 | 900 nM
CN(C)Cc1cccc(-c2ccc(NC(=O)c3ccc4c(=O)n(C5CCCCC5)cnc4c3)cc2)c1 | 740 nM
Cn1c(CN2CCC(N3CCc4cc(NC(=O)c5ccco5)ccc43)C2)cc2ccccc21 (configuration not stated) | 880 nM
NC1CCN(c2nc(NCCCc3ccc(O)cc3)nc(NCc3ccccc3-c3ccc(C(F)(F)F)cc3)n2)CC1 | 730 nM
Cc1nnc2c(NC(=O)NC3CCCC3)cc3cc(-c4ccc(CN(C)C)cc4)ccc3n12 | 1470 nM
Cc1cccc(S(=O)(=O)Nc2cccc(CCN3CCC(N4CCCCC4)CC3)c2)c1 | 1330 nM
CC(C)CCN1CCCN(Cc2ccc(C(=O)Nc3ccc(F)c(F)c3)cc2)CC1 | 940 nM
N#Cc1ccc(N(CCOc2ccc(Cl)c(Cl)c2)Cc2ccccc2C(F)(F)F)cc1C(F)(F)F | 1110 nM
COc1ccc2nccc([C@@H](O)CN3CCC(NCCOc4cccc(C(F)(F)F)c4Cl)CC3)c2c1 | 150 nM
CN1CCCc2cc(NC(=O)c3cc(-c4ccc(Cl)cc4)cs3)ccc2C1 | 810 nM
O=S(=O)(c1cc(Cl)c(Cl)cc1Cl)N1CCCCC(c2ccc(C(F)(F)F)cc2)=N1 | 200 nM
CC(Cc1ccc(C2=CCNCC2)cc1)NCC(O)c1cccc(C(F)(F)F)c1 (configuration not stated) | 1570 nM
CC(=O)Nc1ccc(OCCN(Cc2ccccc2C(F)(F)F)c2ccc(C#N)c(C(F)(F)F)c2)c(Cl)c1 | 620 nM
O=C(Cc1cnc[nH]1)Nc1cccc(-c2ccc(-c3nc4ccc(C(F)(F)F)cc4[nH]3)s2)c1 | 770 nM
NC1CCCN(Cc2ccc(-c3ccc(-c4nc5ccc(F)cc5[nH]4)s3)cc2)C1 (configuration not stated) | 180 nM
CN1CCN(c2ccnc3ccc(NC(=O)Cc4ccc5ccccc5c4)cc23)CC1 | 760 nM
COc1c(F)cc(CC(C)NCC(O)c2cccc(Cl)c2)cc1F (configuration not stated) | 1160 nM
COC1CCC(C(=O)Nc2ccc(-c3cccc(-c4nc5ccc(C(F)(F)F)cc5[nH]4)c3)cc2)CC1 (configuration not stated) | 550 nM
CCN(CC)CCN(Cc1ccc(-c2ccc(C(F)(F)F)cc2)cc1)C(=O)Cn1c(CCc2cc(F)cc(F)c2)nc(=O)c2ccccc21 | 980 nM
